Laboratory results taken from PubChem BioAssay (NCI).
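Each compound was tested at five concentrations against cells in 96-well plates for 48 hours. TGI: concentration producing complete growth inhibition.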

What was measured:
Test in all cases: NCI-60 cell line screen, 48 h
HT29 colon = tested on: HT29 colon
M14 melanoma = tested on: M14 melanoma
DU-145 prostate = tested on: DU-145 prostate
SF-539 CNS = tested on: SF-539 CNS
UACC-257 melanoma = tested on: UACC-257 melanoma
HOP-62 NSCLC = tested on: HOP-62 NSCLC
RPMI-8226 leukemia = tested on: RPMI-8226 leukemia
MDA-MB-231 breast = tested on: MDA-MB-231 breast
T-47D breast = tested on: T-47D breast
OVCAR-8 ovarian = tested on: OVCAR-8 ovarian
U251 CNS = tested on: U251 CNS

| SMILES | TGI (HT29 colon) | TGI (M14 melanoma) | TGI (DU-145 prostate) | TGI (SF-539 CNS) | TGI (UACC-257 melanoma) | TGI (HOP-62 NSCLC) | TGI (RPMI-8226 leukemia) | TGI (MDA-MB-231 breast) | TGI (T-47D breast) | TGI (OVCAR-8 ovarian) | TGI (U251 CNS) |
| --- | --- | --- | --- | --- | --- | --- | --- | --- | --- | --- | --- |
| CCOC(=O)Oc1ccc2c(c1)c(=O)c1c(NCCN(CC)CC)ccc3nnn2c31 | 11.7 µM | 19.1 µM | 8.29 µM | 13.5 µM | 21.1 µM | 7.22 µM | 4.86 µM | 17.6 µM | 29.2 µM | 14.3 µM | 17 µM |
| Fc1cccc(F)c1C1SCc2nc3ccc(Cl)cc3n21 (stereo not given) | > 100 µM | > 100 µM | > 100 µM | > 100 µM | > 100 µM | > 100 µM | > 100 µM | > 100 µM | > 100 µM | > 100 µM | > 100 µM |
| COc1ccc(-n2sc3ncccc3c2=O)cc1 | 43 µM | 41.3 µM | > 100 µM | 37.7 µM | 34.2 µM | 56.7 µM | > 100 µM | 45.1 µM | 44.1 µM | 70.3 µM | 44.6 µM |
| Cn1c(N/N=C/c2ccccc2)nc(-c2ccc([N+](=O)[O-])cc2)c(C#N)c1=O | > 100 µM | > 100 µM | > 100 µM | > 100 µM | > 100 µM | > 100 µM | > 100 µM | 86.7 µM | > 100 µM | > 100 µM | > 100 µM |
| C(=C\N1CCCCC1)/c1nnnn1-c1ccccc1 | > 100 µM | 38.5 µM | > 100 µM | 76.6 µM | > 100 µM | > 100 µM | 59.6 µM | 61.6 µM | 76.3 µM | 95 µM | 80.3 µM |
| S=C(Nc1ccc2cn[nH]c2c1)Nc1ccc2cn[nH]c2c1 | > 100 µM | > 100 µM | > 100 µM | > 100 µM | > 100 µM | > 100 µM | > 100 µM | > 100 µM | > 100 µM | > 100 µM | > 100 µM |
| NC(Cc1ccc(S(=O)(=O)O)cc1)C(=O)NC(Cc1ccc(S(=O)(=O)O)cc1)C(=O)O (stereo not given) | > 100 µM | > 100 µM | > 100 µM | > 100 µM | > 100 µM | > 100 µM | > 100 µM | > 100 µM | > 100 µM | > 100 µM | > 100 µM |
| C[C@H](C/C=C/C(C)(C)O)[C@H]1CC[C@@]2(C)[C@@H]3CC[C@H]4C(C)(C)[C@@H](O)CC[C@@]45C[C@@]35CC[C@]12C | > 100 µM | 44.5 µM | 28.8 µM | 30.8 µM | 33.2 µM | 33.6 µM | 52.8 µM | 33.2 µM | 49.7 µM | 33.4 µM | 53.8 µM |
| O=C1Nc2ccccc2/C1=c1\[nH]c(=O)/c(=C\c2ccc(OCc3ccccc3)cn2)[nH]c1=O | > 100 µM | > 100 µM | > 100 µM | 55.5 µM | > 100 µM | 65.7 µM | > 100 µM | 91.7 µM | > 100 µM | > 100 µM | 44.8 µM |
| C[Si](C)(C)C1=C([Si](C)(C)C)C(Cl)(Cl)C1=O | 13.7 µM | 9.24 µM | 23.3 µM | 12.7 µM | 6.95 µM | 41.4 µM | 3.99 µM | 7.85 µM | 6.35 µM | 9.78 µM | 11.3 µM |
| c1cnc(N2CCN(Cc3c[nH]c4ccccc34)CC2)nc1 | > 100 µM | > 100 µM | 94.2 µM | 67 µM | > 100 µM | > 100 µM | 63.7 µM | > 100 µM | 72.2 µM | > 100 µM | > 100 µM |
| CN(C)c1cccc(NC2=NCCO2)c1 | 47.4 µM | > 100 µM | > 100 µM | > 100 µM | > 100 µM | > 100 µM | > 100 µM | > 100 µM | > 100 µM | > 100 µM | > 100 µM |
| CCN(CC)c1ccc2cc(C(=O)Nc3ccccn3)c(=N)oc2c1 | > 100 µM | > 100 µM | > 100 µM | > 100 µM | > 100 µM | 52.1 µM | > 100 µM | > 100 µM | > 100 µM | > 100 µM | > 100 µM |
| COC(=O)c1ccc(Nc2nc3nc[nH]c3c(=O)[nH]2)cc1 | > 100 µM | > 100 µM | > 100 µM | > 100 µM | > 100 µM | > 100 µM | > 100 µM | > 100 µM | > 100 µM | > 100 µM | > 100 µM |
| O=C1c2cn[nH]c2C(c2ccccc2)N1c1ccccc1 (stereo not given) | > 10 µM | > 10 µM | > 10 µM | > 10 µM | > 10 µM | > 10 µM | > 10 µM | > 10 µM | > 10 µM | > 10 µM | > 10 µM |
| COc1ccccc1C[C@@H]1OC2(C=CC(=O)C=C2)O[C@H]1Cc1ccccc1OC | 16.7 µM | 17.5 µM | > 50 µM | 15.6 µM | 16.1 µM | 15.4 µM | 6.24 µM | 38.6 µM | > 50 µM | 3.46 µM | 19.4 µM |
| CCOC(=O)C1=C(C)N(c2ccc(OC)cc2)C2(O)C=CC(=O)C3=C(O)c4ccccc4C(=O)C312 (stereo not given) | 32.7 µM | 21.8 µM | 28.4 µM | 21.2 µM | 31.2 µM | 30.1 µM | 10.9 µM | 34.8 µM | 32.7 µM | 81.1 µM | 23.5 µM |
| CCN(CC)c1ccc(/C=C/C=C2C(=O)NC(=S)NC2=O)cc1 | > 100 µM | > 100 µM | > 100 µM | 36.6 µM | > 100 µM | 47.9 µM | > 100 µM | > 78.6 µM | > 100 µM | 42.4 µM | > 80.8 µM |
| CN(C)/N=C1\CC(c2ccccc2)C(C#N)(C#N)C1(C#N)C#N (stereo not given) | 50.5 µM | 34.3 µM | 36.2 µM | > 100 µM | 34.3 µM | 59 µM | 47.2 µM | 36.9 µM | 50.3 µM | 41.9 µM | > 100 µM |
| COc1cc(C2c3cc4c(cc3OC(NCCO)C2C)OCO4)cc(OC)c1OC (stereo not given) | 21.4 µM | > 45 µM | > 100 µM | 0.635 µM | > 100 µM | 9.03 µM | > 34 µM | > 100 µM | > 100 µM | > 100 µM | 12.5 µM |
| Clc1ccc(OCc2nn3c(CCc4nnc5sc(COc6ccc(Cl)cc6)nn45)nnc3s2)cc1 | > 100 µM | > 100 µM | 44.2 µM | > 100 µM | 82.9 µM | > 100 µM | > 100 µM | 61.8 µM | > 100 µM | 35.8 µM | 54.6 µM |
| COc1cc(C2c3cc4c(cc3OC(N3CCNCC3)C2C)OCO4)cc(OC)c1OC (stereo not given) | 7.54 µM | 20 µM | > 28.5 µM | 1.94 µM | > 47.9 µM | 27.3 µM | 17.3 µM | 2.46 µM | > 100 µM | > 37.8 µM | > 43.8 µM |
| CC1CC(=O)N(N(C)C)C(C#N)(C#N)C1(C#N)C#N (stereo not given) | 38 µM | 42.9 µM | 32.5 µM | 59.1 µM | 29.8 µM | > 60.6 µM | 32 µM | 28.9 µM | 42.1 µM | 45.2 µM | 42.4 µM |
| Cc1ccc2c(c1)C(=O)C(C1OC(=O)c3ccccc31)C2 (stereo not given) | > 100 µM | > 100 µM | > 100 µM | > 100 µM | > 100 µM | > 100 µM | > 100 µM | > 100 µM | > 100 µM | > 100 µM | > 100 µM |
| C[Si](C)(c1ccccc1)[C@H]1CCCC=C1CCNC1c2ccccc2CCc2ccccc21 | > 100 µM | > 100 µM | > 100 µM | > 100 µM | > 100 µM | > 100 µM | > 100 µM | > 100 µM | > 100 µM | > 100 µM | > 100 µM |
